Test results from PubChem BioAssay (NCI).
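GI50: concentration for 50% inhibition of growth. Definition used: TGI = concentration required for complete inhibition of growth.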

Assays:
Assay in all cases: NCI-60 cell line screen, 384-well format
NCI-H522 lung = system: NCI-H522 lung
CCRF-CEM leukemia = system: CCRF-CEM leukemia
UACC-62 melanoma = system: UACC-62 melanoma
HCT-116 colon = system: HCT-116 colon
HOP-62 NSCLC = system: HOP-62 NSCLC
KM12 colon = system: KM12 colon
NCI-H23 lung = system: NCI-H23 lung
A498 renal = system: A498 renal
SK-MEL-2 melanoma = system: SK-MEL-2 melanoma
U251 glioblastoma = system: U251 glioblastoma
HCT-15 colon = system: HCT-15 colon
HL-60(TB) leukemia = system: HL-60(TB) leukemia
CAKI-1 renal = system: CAKI-1 renal
HT29 colon = system: HT29 colon
T-47D breast = system: T-47D breast
MALME-3M melanoma = system: MALME-3M melanoma
SW-620 colon = system: SW-620 colon
UO-31 renal = system: UO-31 renal
SR leukemia = system: SR leukemia
NCI-H226 lung = system: NCI-H226 lung
HOP-92 NSCLC = system: HOP-92 NSCLC
SNB-75 CNS = system: SNB-75 CNS
786-0 renal = system: 786-0 renal
M14 melanoma = system: M14 melanoma
NCI-H322M lung = system: NCI-H322M lung
DU-145 prostate = system: DU-145 prostate
MCF7 breast = system: MCF7 breast
OVCAR-3 ovarian = system: OVCAR-3 ovarian
COLO 205 colon = system: COLO 205 colon
HS 578T breast = system: HS 578T breast
ACHN renal = system: ACHN renal
MDA-MB-435 melanoma = system: MDA-MB-435 melanoma
LOX IMVI melanoma = system: LOX IMVI melanoma
UACC-257 melanoma = system: UACC-257 melanoma
EKVX NSCLC = system: EKVX NSCLC
BT-549 breast = system: BT-549 breast
MDA-MB-231 breast = system: MDA-MB-231 breast
SK-MEL-5 melanoma = system: SK-MEL-5 melanoma
SNB-19 CNS = system: SNB-19 CNS
OVCAR-4 ovarian = system: OVCAR-4 ovarian
K-562 leukemia = system: K-562 leukemia
SK-MEL-28 melanoma = system: SK-MEL-28 melanoma
SF-295 CNS = system: SF-295 CNS
NCI/ADR-RES ovarian = system: NCI/ADR-RES ovarian
OVCAR-5 ovarian = system: OVCAR-5 ovarian
SN12C renal = system: SN12C renal
NCI-H460 NSCLC = system: NCI-H460 NSCLC
TK-10 renal = system: TK-10 renal
MDA-MB-468 breast = system: MDA-MB-468 breast
RXF 393 renal = system: RXF 393 renal
PC-3 prostate = system: PC-3 prostate
SF-268 CNS = system: SF-268 CNS
IGROV1 ovarian = system: IGROV1 ovarian
HCC-2998 colon = system: HCC-2998 colon
SF-539 CNS = system: SF-539 CNS
SK-OV-3 ovarian = system: SK-OV-3 ovarian
A549 NSCLC = system: A549 NSCLC
RPMI-8226 leukemia = system: RPMI-8226 leukemia
MOLT-4 leukemia = system: MOLT-4 leukemia

## CC1(C)CNc2cc(NC(=O)c3cccnc3NCc3ccncc3)ccc21
NCI-H522 lung
  GI50: 20.4 µM
  TGI: 50.2 µM
CCRF-CEM leukemia
  GI50: 12.7 µM
  TGI: 27.6 µM
UACC-62 melanoma
  GI50: 19.1 µM
  TGI: 97.7 µM
HCT-116 colon
  GI50: 46.7 µM
  TGI: > 100 µM
HOP-62 NSCLC
  GI50: 70.9 µM
  TGI: > 100 µM
KM12 colon
  GI50: 38.8 µM
  TGI: > 100 µM
NCI-H23 lung
  GI50: 25.8 µM
  TGI: 82.9 µM
A498 renal
  GI50: 25.6 µM
  TGI: > 100 µM
SK-MEL-2 melanoma
  GI50: 39.2 µM
  TGI: 58.3 µM
U251 glioblastoma
  GI50: 46 µM
  TGI: > 100 µM
HCT-15 colon
  GI50: 16.6 µM
  TGI: 44.7 µM
HL-60(TB) leukemia
  GI50: 25.5 µM
  TGI: 42.4 µM
CAKI-1 renal
  GI50: 19.4 µM
  TGI: > 100 µM
HT29 colon
  GI50: 24.6 µM
  TGI: 66.8 µM
T-47D breast
  GI50: 14.9 µM
  TGI: 47.3 µM
MALME-3M melanoma
  GI50: 20.1 µM
  TGI: 66.5 µM
SW-620 colon
  GI50: 49.6 µM
  TGI: > 100 µM
UO-31 renal
  GI50: 25 µM
  TGI: 85.5 µM
SR leukemia
  GI50: 11.4 µM
  TGI: 24.3 µM
NCI-H226 lung
  GI50: 9.96 µM
  TGI: 31.4 µM
HOP-92 NSCLC
  GI50: 21.1 µM
  TGI: 83.3 µM
SNB-75 CNS
  GI50: 22.1 µM
  TGI: 80.9 µM
786-0 renal
  GI50: 35.8 µM
  TGI: > 100 µM
M14 melanoma
  GI50: 24.9 µM
  TGI: > 100 µM
NCI-H322M lung
  GI50: 33.4 µM
  TGI: > 100 µM
DU-145 prostate
  GI50: 21.3 µM
  TGI: > 100 µM
MCF7 breast
  GI50: 23.3 µM
  TGI: > 100 µM
OVCAR-3 ovarian
  GI50: 14.8 µM
  TGI: 40.6 µM
COLO 205 colon
  GI50: 31.6 µM
  TGI: > 100 µM
HS 578T breast
  GI50: 15.8 µM
  TGI: 40.5 µM
ACHN renal
  GI50: 10.7 µM
  TGI: 64.5 µM
MDA-MB-435 melanoma
  GI50: 29.4 µM
  TGI: 98.4 µM
LOX IMVI melanoma
  GI50: 24.9 µM
  TGI: 52.5 µM
UACC-257 melanoma
  GI50: 30.9 µM
  TGI: > 100 µM
EKVX NSCLC
  GI50: 17.9 µM
  TGI: 48.6 µM
BT-549 breast
  GI50: 26.1 µM
  TGI: 65.5 µM
MDA-MB-231 breast
  GI50: 24.5 µM
  TGI: 82 µM
SK-MEL-5 melanoma
  GI50: 13.1 µM
  TGI: 28.3 µM
SNB-19 CNS
  GI50: 44.8 µM
  TGI: > 100 µM
OVCAR-4 ovarian
  GI50: 13.7 µM
  TGI: 60.6 µM
K-562 leukemia
  GI50: 12.7 µM
  TGI: 52.5 µM
SK-MEL-28 melanoma
  GI50: 37.8 µM
  TGI: > 100 µM
SF-295 CNS
  GI50: 35.7 µM
  TGI: > 100 µM
NCI/ADR-RES ovarian
  GI50: 17.8 µM
  TGI: 42.7 µM
OVCAR-5 ovarian
  GI50: 52.9 µM
  TGI: > 100 µM
SN12C renal
  GI50: 30.4 µM
  TGI: > 100 µM
NCI-H460 NSCLC
  GI50: 25.1 µM
  TGI: > 100 µM
TK-10 renal
  GI50: 14.2 µM
  TGI: > 100 µM
MDA-MB-468 breast
  GI50: 9.35 µM
  TGI: 25.1 µM
RXF 393 renal
  GI50: 11 µM
  TGI: 29.6 µM
PC-3 prostate
  GI50: 43.2 µM
  TGI: > 100 µM
SF-268 CNS
  GI50: 25.2 µM
  TGI: 88.9 µM
IGROV1 ovarian
  GI50: 12.5 µM
  TGI: 40.3 µM
HCC-2998 colon
  GI50: 38 µM
  TGI: > 100 µM
SF-539 CNS
  GI50: 14.3 µM
  TGI: > 100 µM
SK-OV-3 ovarian
  GI50: 18.6 µM
  TGI: 61.4 µM
A549 NSCLC
  GI50: 31.2 µM
  TGI: > 100 µM
RPMI-8226 leukemia
  GI50: 16 µM
  TGI: 41.6 µM
MOLT-4 leukemia
  GI50: 12.7 µM
  TGI: 26.5 µM
